According to publication PMC9365994, “Small molecules to regulate the GH/IGF1 axis by inhibiting the growth hormone receptor synthesis” (Frontiers in Endocrinology, 2022):

Experiments:
[1] = test system: GH-induced GHR-Jak2-Stat5 signaling in IM9 lymphoblasts; assay: Flow cytometric (FACS) pSTAT5 test, GH-induced, IM9 cells in whole blood; details: drugs 50 µM for 15 MIN
Protocol: First round: The PerFix EXPOSE (Beckman Coulter), was used to fix and permeabilize cells according to the optimized procedure described in Malergue et al., 2015 ([36]). Samples were analyzed in FC500 MPL. Data were analyzed with Kaluza software (Beckman Coulter). Second round: the PerFix EXPOSE was used according to the IFU and samples were analyzed in a Navios Cytometer. The first screening used pure IM-9 cells, whereas in the second round they were spiked in 100 µL whole blood (EDTA tubes). 15 min after the inhibitory compounds, the activators were added for 20-30 min.
In short: A mixture of blood and
IM9 human lymphoblast was incubated with the drugs (50 µM) for 15 MIN; GH and GM-CSF
were added 7 min before the cells were fixed with formaldehyde. Blood cells are sensitive to
GM-CSF, and not to GH; IM9 cells are sensitive to GH. A mixture of three antibodies in three
colors; CD14-FITC, CD34-PE and p-Stat5-Alexa 647 was used to analyze the p-Stat5 levels
of monocytes and IM9 cells.
Fig. S8A. FACS plots of compounds that inhibit GH-induced GHR-Jak2-Stat5 signaling in IM9 lymphoblasts.
The end point of the signaling cascade is measured by assessing the phosphorylation status of STAT5.
Stat5. Conc of drugs: 1 mM; incubation time 30 min
Fig. S8B. FACS plots of compounds that inhibit GM-CSF-Jak2-Stat5 signaling in blood monocytes. The end
point of the signaling cascade is measured by assessing the phosphorylation status of STAT5.

[2] = test system: phosphorylated fos-GHRct (fos-GHRct/Jak2 signaling); assay: Cell based primary screen: immune fluorescence (anti-GHR, anti-pY, anti-pJak2, anti-pSTAT5) of fos-GHRct-transfected γ2A iJak2 cells; set-up: species or system human; details: for IC50: Homo sapiens, Table_2.xlsx, second analogue set, read-out: GHR INHIBITORS, BM#, IC50
Protocol: Drug handling and cell-based assays are detailed in Supplementary Data 1 , automation. High-Content StratoMineR ([35]). After incubation with the compounds, the cells were fixed and the fluorescence (anti-GHR, anti-pY, anti-pJak2, anti-pSTAT5) was quantitated.
As it was unknown whether the GH/IGF1 axis is druggable, we designed a broad strategy based on our previous studies in which soluble fos-zipped GHR cytosolic tails (fos-GHRct) can serve as signaling complexes if co-expressed with Jak ([32], [39]). Fos-GHRct expressed without Jak2 is immediately degraded by the ubiquitin pathway. Phosphorylated fos-GHRct (fos-pGHRct) detaches from Jak2 and unzips. Only unzipped fos-pGHRct are protected from proteasomal degradation and accumulate in the cell. […] For 6 scenarios the signal will be decreased: (1) inhibition of Jak2 kinase activity, (2) inhibition of fos-GHRct expression, (3) inhibition of the fos-GHRct : Jak2 interaction, (4) increased degradation of fos-pGHRct, (5) increased degradation of Jak2, and (6) dephosphorylation of fos-pGHRct ([32], [39]).
Figure 1 Diagram of the primary screen. […] If fos-GHRct and Jak2 bind via FERM and box-1, Jak2 gets activated and phosphorylates itself, the dimerized fos-GHRct and STAT5b. After phosphorylation of fos-GHRct, Jak2 and STAT5, the complex dissociates. As fos-pGHRct is protease-resistant, it accumulates in the cells. Unphosphorylated fos-GHRct is rapidly degraded. Steady state levels of fos-pGHRct are lower if one of the 6 scenarios is valid. The cell-based assay was performed in γ2A cells carrying inducible Jak2 (iJak2) or binding-deficient iJak2 Y119E (as control) ( Figure 2 ). […]
1. Cell based primary screen
The assay was based on Fos-zippered GHR cytosolic tails (fos-GHRct) subsequently acting […]
Fig S1A. Immune Fluorescence staining of γ2a Fig S1B. Immune Fluorescence staining of γ2a monoclonal cell line stably transfected with an monoclonal cell line stably transfected with an inducible Jak2 WT expression construct. inducible Jak2 Y119E expression construct. aim we used a human fibroblast cell line
From this line we generated doxycycline inducible Jak2 clones, expressing either wild type Jak2 or Y119E mutant Jak2 whose FERM domain does […]
To establish a sensitive test, sufficient […]
control the system, we used fos-GHRct mutated in box-1 or the cell line expressing mutant (Y119E) Jak2. The box-1 motif is the binding site of Jak2 in GHR; mutation of this motif (all four proline into alanine) is known to reduce the binding between GHR and Jak2. In the primary screen we measured 4 different signals: fos-GHRct (anti-GHR), tyrosine phosphorylated fos-GHRct (anti-pY), tyrosine phosphorylated Jak2 (anti-pY or anti- […]
inhibition of either fos-GHRct stabilization or fos-GHRct synthesis, are considered positive.
Immunoblots are not appropriate for high throughput screening. Using fos-GHRct-transfected cells as in Fig. S3 and pY-specific primary antibodies, we developed a high throughput screening assay based on pY-fos-GHRct immune fluorescent detection in 384-well plates with automated microscopy. […]
panel). From left to right: Dapi staining to visualize nuclei, fos-GHRct staining: GHRtails are detected by […]

MM231 = test system: MM231; set-up: method as in PMID 28576744, PMID 17463090; details: cited from earlier work
hGH = assay: Steady state hGH in hGH-transfected Y2A cells (general protein synthesis); format: cell-based, human; details: drug treatment overnight (10 µM); CHX 40 µg/ml
Excerpt: Figure S14. The best 5 compounds from the dose-response curves were used to test their effect on cell proliferation. They inhibit proliferation of triple negative human breast cancer (MDA-MB-231) cells and colon […]
8. Effect of selected drugs on GH synthesis […]
intracellular steady state concentration of a secretory glycoprotein (human growth hormone, hGH): its steady state is the result of synthesis, glycosylation, intracellular transport and […]
amount of hGH, while none of the compounds changed the steady state concentration in the […]
Figure S15. Y2A cells were transfected with 5 µg of a hGH-pcDNA construct in a 24-well plate; drug treatment overnight (10 µM) as indicated (CHX, cycloheximide 40 µg/ml). […]
control drug, 10 µM. Right lane: human GH 20 ng (control). Only cycloheximide decreased the steady state concentration of hGH in the cells. hGH in the lysates was detected with a rabbit anti-GH antibody.
Furqan, M., N. Mukhi, B. Lee, and D. Liu. 2013. Dysregulation of JAK-STAT pathway in hematological malignancies and JAK inhibitors for clinical application. Biomarker research. 1:5.
Malergue, F., A. van Agthoven, C. Scifo, D. Egan, and G.J. Strous. 2015. Automation of a phospho-STAT5 staining procedure for flow cytometry for application in drug discovery. J Biomol Screen. 20:416-421.
Nespital, T., L.M. van der Velden, A. Mensinga, E.D. van der Vaart, and G.J. Strous. 2016. […]

[3] = test system: COLO-205 human colon cancer cells; set-up: method as in PMID 15736405; details: cited from earlier work

Row | Compound | IC50 [2] [nM] | other results
1 | O=C1C(Cl)=C/C(=N/S(=O)(=O)c2cccs2)c2ccccc21 [AQ-390/41647621] | – | inhibition in the FACS assay [1]: > 30%
2 | CCOC(=O)CCOc1c(OC)cc(NCc2ccc3nc(N)nc(N)c3c2C)cc1OC [BM005] | 200 | –
3 | Cc1nc(N)nc(N)c1CCC(C)c1ccc(F)cc1 (stereo not drawn) [BM006] | 200 | –
4 | CC(C)(/C=C/c1c(N)nc(N)nc1CCC(F)(F)F)c1ccc(C(F)(F)F)cc1 [BM007] | 400 | –
5 | Cc1cc(C)cc(-c2ccc3nc(N)nc(N)c3c2C)c1 [BM008] | 500 | –
6 | Nc1nc(N)c2c(ccc3c2ccn3CC2CC2)n1 [BM009] | 600 | –
7 | Cc1nc(N)nc(NCc2ccccn2)c1/C=C/C(C)(C)c1ccc(C(F)(F)F)cc1 [BM010] | 800 | –
8 | Cc1c(-c2cccc(S(C)(=O)=O)c2)ccc2nc(N)nc(N)c12 [BM011] | 900 | –
9 | Cc1c(-c2cccc(C(F)(F)F)c2)ccc2nc(N)nc(N)c12 [BM013] | 900 | –
10 | CC1(C)Cc2ccc3nc(N)nc(N)c3c2O1 [BM014] | 900 | –
11 | CCn1c(C(=O)N(C2CC2)C2CC2)cc2c3c(ncn3C)c(Nc3cc(C)n(C)n3)nc21 [BMS-911543, reference compound] | – | IC50, percentage pY positive cells ([2]; γ2A cells treated for 24 h, Fig S5): nanomolar range
12 | Cc1ccc(S(=O)(=O)OCC(=O)Nc2ccc(C(=O)O)c(O)c2)cc1 [S3I-201] | – | tumor response (in words) (MM231): tumor regression
13 | C[C@@H]1C[C@@H]([C@H](O)CC2CC(=O)NC(=O)C2)C(=O)[C@@H](C)C1 [cycloheximide] | – | steady state concentration of hGH in the cells (hGH): decreased
14 | pegvisomant | – | decrease in tumor weight compared to controls [3]: 44%; decrease in tumor-volume compared to controls [3]: 39%
